Measured values from patent US20240343754A1, “7-SUBSTITUTED 7-DEAZAADENINE-CONTAINING 2',3'-CYCLIC DINUCLEOTIDES” (USTAV ORGANICKE CHEMIE A BIOCHEMIE AV CR, V. V. I., priority 2021, published 2024).
Like-named read-outs stand apart in the source and are kept apart here.

Tests used:
[1] = tested on: Peripheral blood mononuclear cells (PBMC); assay: PBMC assay: induction of cytokines INFα and INFγ; type: cell-based; conditions: Homo sapiens, PBMCs, 16 h incubation, mean from three different PBMC donors
[2] = Cytotoxic effect on PBMCs (CellTiter-Glo Luminescent Cell Viability Assay); type: cell-based; conditions: human, 16 h incubation, mean from three different PBMC donors
Description: Briefly, buffy coats were obtained from the Institute of Hematology and Blood Transfusion (Prague, Czech Republic). Informed written consent was signed by each volunteer. Isolation of PBMCs was performed on Ficoll density gradient centrifugation (Ficoll Paque Plus, GE Healthcare, USA) in SepMate tubes (SepMate PBMC Isolation Tubes, Stemcell Technologies, Canada). Obtained PBMCs were washed using PBS with 2 mM EDTA, and then seeded onto 96-well U-shape plates at density 500,000 cells per well in RPMI 1640 media with 10% (v/v) heat inactivated FBS. Serially diluted CDNs were added to cells and cells were incubated for 16 h (37° C., 5% CO2). After incubation, medium was collected to determine levels of INFα and INFγ using ProcartaPlex Assays and MAGPIX System (Merck, Germany) according to the manufacturer's instructions. Cytotoxic effect of CDNs on PBMCs was determined using CellTiter-Glo® Luminescent Cell Viability Assay (Promega Corporation, USA) according to manufacturer's instruction.

wt hSTING = wt hSTING (Homo sapiens, UniProt Q86WV6); assay: Standard 293T reporter cell-based assay (IRF-3 dependent firefly luciferase reporter)
Description: Briefly, the day before testing cells were seeded onto 96-well white plates at density 250,000 cells per cm^2 in DMEM High glucose medium supplemented with 10% (v/v) heat inactivated fetal bovine albumin (FBS). The next day medium was removed, and cell were incubated for 7 h (37° C., 5% CO2) with serial dilution of compounds in medium. After incubation, Bright-Glo Luciferase Assay System reagent was added to cells and luminescence readout was performed on SPARK instrument (Tecan, Austria). EC50 values were determined using in software Prism (GraphPad, USA).

[3] = read-out: PBMC assay EC50 INF α
[4] = read-out: PBMC assay EC50 INF γ
[5] = read-out: Standard assay EC50, 293T reporter cells expressing wt hSTING, 7 h incubation, mean of three independent experiments in triplicates, SD <50%

Chain of wt hSTING (Q86WV6 whole entry H232R): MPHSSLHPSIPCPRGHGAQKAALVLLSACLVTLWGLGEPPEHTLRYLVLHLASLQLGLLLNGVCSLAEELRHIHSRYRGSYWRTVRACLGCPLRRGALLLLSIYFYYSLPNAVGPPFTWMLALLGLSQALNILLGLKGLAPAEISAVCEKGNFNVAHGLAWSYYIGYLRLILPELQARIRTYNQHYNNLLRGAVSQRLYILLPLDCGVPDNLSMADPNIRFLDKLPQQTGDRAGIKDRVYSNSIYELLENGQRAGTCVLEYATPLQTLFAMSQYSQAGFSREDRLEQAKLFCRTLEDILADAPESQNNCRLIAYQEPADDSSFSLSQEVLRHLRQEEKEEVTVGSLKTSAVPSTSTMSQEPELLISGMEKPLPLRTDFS

Row | EC50 (wt hSTING; [5]) | EC50 (wt hSTING) | Compound | EC50 [1, 3] | EC50 [1, 4] | CC50 at 16 h [2]
1 | 19.1 µM |  | Nc1nc2c(ncn2[C@@H]2O[C@@H]3COP(=O)(O)O[C@H]4[C@@H](O)[C@H](n5cc(-c6cccc7c6oc6ccccc67)c6c(N)ncnc65)O[C@@H]4COP(=O)(O)O[C@@H]2[C@@H]3O)c(=O)[nH]1 [Compound 1m, 2-amino-9-((5R,7R,8R,12aR,14R,15R,15aS,16R)-14-(4-amino-5-(dibenzo[b,d]furan-4-yl)-7H-pyrrolo[2,3-d]pyrimidin-7-yl)-2,10,15,16-tetrahydroxy-2,10-dioxidooctahydro-12H-5,8-methanofuro[3,2-l][1,3,6,9,11]pentaoxa[2,10]diphosphacyclotetradecin-7-yl)-1,9-dihydro-6H-purin-6-one] |  |  | > 200 µM
2 | 7.63 µM |  | Nc1nc2c(ncn2[C@@H]2O[C@@H]3COP(=O)(O)O[C@H]4[C@@H](O)[C@H](n5cc(-c6ccc7ccccc7c6)c6c(N)ncnc65)O[C@@H]4COP(=O)(O)O[C@@H]2[C@@H]3O)c(=O)[nH]1 [Compound 1c, 2-amino-9-((5R,7R,8R,12aR,14R,15R,15aS,16R)-14-(4-amino-5-(naphthalen-2-yl)-7H-pyrrolo[2,3-d]pyrimidin-7-yl)-2,10,15,16-tetrahydroxy-2,10-dioxidooctahydro-12H-5,8-methanofuro[3,2-l][1,3,6,9,11]pentaoxa[2,10]diphosphacyclotetradecin-7-yl)-1,9-dihydro-6H-purin-6-one] |  |  | > 200 µM
3 | 42.5 µM |  | Nc1nc2c(ncn2[C@@H]2O[C@@H]3COP(=O)(O)O[C@H]4[C@@H](O)[C@H](n5cc(-c6cccc7ccccc67)c6c(N)ncnc65)O[C@@H]4COP(=O)(O)O[C@@H]2[C@@H]3O)c(=O)[nH]1 [Compound 1d, 2-amino-9-((5R,7R,8R,12aR,14R,15R,15aS,16R)-14-(4-amino-5-(naphthalen-1-yl)-7H-pyrrolo[2,3-d]pyrimidin-7-yl)-2,10,15,16-tetrahydroxy-2,10-dioxidooctahydro-12H-5,8-methanofuro[3,2-l][1,3,6,9,11]pentaoxa[2,10]diphosphacyclotetradecin-7-yl)-1,9-dihydro-6H-purin-6-one] |  |  | > 200 µM
4 | 3.06 µM |  | Nc1nc2c(ncn2[C@@H]2O[C@@H]3COP(=O)(O)O[C@H]4[C@@H](O)[C@H](n5cc(-c6ccc(-c7ccc8ccccc8c7)cc6)c6c(N)ncnc65)O[C@@H]4COP(=O)(O)O[C@@H]2[C@@H]3O)c(=O)[nH]1 [Compound 1g, 2-amino-9-((5R,7R,8R,12aR,14R,15R,15aS,16R)-14-(4-amino-5-(4-(naphthalen-2-yl)phenyl)-7H-pyrrolo[2,3-d]pyrimidin-7-yl)-2,10,15,16-tetrahydroxy-2,10-dioxidooctahydro-12H-5,8-methanofuro[3,2-l][1,3,6,9,11]pentaoxa[2,10]diphosphacyclotetradecin-7-yl)-1,9-dihydro-6H-purin-6-one] | 5.1 µM | 1.8 µM | > 200 µM
5 | 10.9 µM |  | Nc1nc2c(ncn2[C@@H]2O[C@@H]3COP(=O)(O)O[C@H]4[C@@H](O)[C@H](n5cc(-c6cc7ccccc7o6)c6c(N)ncnc65)O[C@@H]4COP(=O)(O)O[C@@H]2[C@@H]3O)c(=O)[nH]1 [Compound 1k, 2-amino-9-((5R,7R,8R,12aR,14R,15R,15aS,16R)-14-(4-amino-5-(benzo[b]furan-2-yl)-7H-pyrrolo[2,3-d]pyrimidin-7-yl)-2,10,15,16-tetrahydroxy-2,10-dioxidooctahydro-12H-5,8-methanofuro[3,2-l][1,3,6,9,11]pentaoxa[2,10]diphosphacyclotetradecin-7-yl)-1,9-dihydro-6H-purin-6-one] | 13.8 µM | 8.48 µM | > 200 µM
6 | 8.69 µM |  | Nc1nc2c(ncn2[C@@H]2O[C@@H]3COP(=O)(O)O[C@H]4[C@@H](O)[C@H](n5cc(-c6cc7ccccc7s6)c6c(N)ncnc65)O[C@@H]4COP(=O)(O)O[C@@H]2[C@@H]3O)c(=O)[nH]1 [Compound 1l, 2-amino-9-((5R,7R,8R,12aR,14R,15R,15aS,16R)-14-(4-amino-5-(benzo[b]thiophen-2-yl)-7H-pyrrolo[2,3-d]pyrimidin-7-yl)-2,10,15,16-tetrahydroxy-2,10-dioxidooctahydro-12H-5,8-methanofuro[3,2-l][1,3,6,9,11]pentaoxa[2,10]diphosphacyclotetradecin-7-yl)-1,9-dihydro-6H-purin-6-one] | 47.6 µM | 47.5 µM | > 200 µM
7 | 40.7 µM |  | Nc1nc2c(ncn2[C@@H]2O[C@@H]3COP(=O)(O)O[C@H]4[C@@H](O)[C@H](n5cc(-c6ccccc6)c6c(N)ncnc65)O[C@@H]4COP(=O)(O)O[C@@H]2[C@@H]3O)c(=O)[nH]1 [Compound 1b, 2-amino-9-((5R,7R,8R,12aR,14R,15R,15aS,16R)-14-(4-amino-5-phenyl-7H-pyrrolo[2,3-d]pyrimidin-7-yl)-2,10,15,16-tetrahydroxy-2,10-dioxidooctahydro-12H-5,8-methanofuro[3,2-l][1,3,6,9,11]pentaoxa[2,10]diphosphacyclotetradecin-7-yl)-1,9-dihydro-6H-purin-6-one] |  |  | > 200 µM

Further lines, the compound ahead of its results:

Row | Compound | EC50 (wt hSTING; [5]) | EC50 (wt hSTING) | EC50 [1, 3] | EC50 [1, 4] | CC50 at 16 h [2]
8 | Nc1nc2c(ncn2[C@@H]2O[C@@H]3COP(=O)(O)O[C@H]4[C@@H](O)[C@H](n5cc(-c6ccco6)c6c(N)ncnc65)O[C@@H]4COP(=O)(O)O[C@@H]2[C@@H]3O)c(=O)[nH]1 [Compound 1i, 2-amino-9-((5R,7R,8R,12aR,14R,15R,15aS,16R)-14-(4-amino-5-(furan-2-yl)-7H-pyrrolo[2,3-d]pyrimidin-7-yl)-2,10,15,16-tetrahydroxy-2,10-dioxidooctahydro-12H-5,8-methanofuro[3,2-l][1,3,6,9,11]pentaoxa[2,10]diphosphacyclotetradecin-7-yl)-1,9-dihydro-6H-purin-6-one] |  |  | 2.8 µM | 2.24 µM | > 200 µM
9 | Cc1cn([C@@H]2O[C@@H]3COP(=O)(O)O[C@@H]4[C@H](O)[C@@H](COP(=O)(O)O[C@H]3[C@H]2O)O[C@H]4n2cnc3c(=O)[nH]c(N)nc32)c2ncnc(N)c12 [Compound 1a, 2-amino-9-((5R,7R,8R,12aR,14R,15R,15aS,16R)-14-(4-amino-5-methyl-7H-pyrrolo[2,3-d]pyrimidin-7-yl)-2,10,15,16-tetrahydroxy-2,10-dioxidooctahydro-12H-5,8-methanofuro[3,2-l][1,3,6,9,11]pentaoxa[2,10]diphosphacyclotetradecin-7-yl)-1,9-dihydro-6H-purin-6-one] |  |  | 30.6 µM | 7.8 µM | > 200 µM
10 | Nc1nc2c(ncn2[C@@H]2O[C@@H]3COP(=O)(O)O[C@H]4[C@@H](O)[C@H](n5cc(-c6cc7ccccc7c7ccccc67)c6c(N)ncnc65)O[C@@H]4COP(=O)(O)O[C@@H]2[C@@H]3O)c(=O)[nH]1 [Compound 1e, 2-amino-9-((5R,7R,8R,12aR,14R,15R,15aS,16R)-14-(4-amino-5-(phenanthren-9-yl)-7H-pyrrolo[2,3-d]pyrimidin-7-yl)-2,10,15,16-tetrahydroxy-2,10-dioxidooctahydro-12H-5,8-methanofuro[3,2-l][1,3,6,9,11]pentaoxa[2,10]diphosphacyclotetradecin-7-yl)-1,9-dihydro-6H-purin-6-one] | 65.5 µM |  |  |  | > 200 µM
11 | Nc1nc2c(ncn2[C@@H]2O[C@@H]3COP(=O)(O)O[C@H]4[C@@H](O)[C@H](n5ccc6c(N)ncnc65)O[C@@H]4COP(=O)(O)O[C@@H]2[C@@H]3O)c(=O)[nH]1 [Compound 1n, 2-amino-9-((5R,7R,8R,12aR,14R,15R,15aS,16R)-14-(4-amino-7H-pyrrolo[2,3-d]pyrimidin-7-yl)-2,10,15,16-tetrahydroxy-2,10-dioxidooctahydro-12H-5,8-methanofuro[3,2-l][1,3,6,9,11]pentaoxa[2,10]diphosphacyclotetradecin-7-yl)-1,9-dihydro-6H-urin-6-one, reference compound] |  |  | 54.5 µM | 67.6 µM | > 200 µM
12 | C#Cc1cn([C@@H]2O[C@@H]3COP(=O)(O)O[C@@H]4[C@H](O)[C@@H](OCP(=O)(O)O[C@H]3[C@H]2O)O[C@H]4n2cnc3c(=O)[nH]c(N)nc32)c2ncnc(N)c12 [Compound 53, 2-amino-9-((5R,7R,8R,12aR,14R,15R,15aS,16S)-14-(4-amino-5-ethynyl-7H-pyrrolo[2,3-d]pyrimidin-7-yl)-2,10,15,16-tetrahydroxy-2,10-dioxidooctahydro-5,8-methanofuro[3,2-l][1,3,6,8,11]pentaoxa[2,10]diphosphacyclotetradecin-7-yl)-1,9-dihydro-6H-purin-6-one, reference compound] |  | 109 µM |  |  | 
13 | Nc1nc2c(ncn2[C@@H]2O[C@@H]3COP(=O)(O)O[C@H]4[C@@H](O)[C@H](n5cc(-c6cccs6)c6c(N)ncnc65)O[C@@H]4COP(=O)(O)O[C@@H]2[C@@H]3O)c(=O)[nH]1 [Compound 1j, 2-amino-9-((5R,7R,8R,12aR,14R,15R,15aS,16R)-14-(4-amino-5-(thiophen-2-yl)-7H-pyrrolo[2,3-d]pyrimidin-7-yl)-2,10,15,16-tetrahydroxy-2,10-dioxidooctahydro-12H-5,8-methanofuro[3,2-l][1,3,6,9,11]pentaoxa[2,10]diphosphacyclotetradecin-7-yl)-1,9-dihydro-6H-purin-6-one] |  |  | 2.88 µM | 2.6 µM | > 200 µM
